Data published in patent US20240270809A1, “ORAL GLP RECEPTOR AGONISTS” (priority 2020, published 2024).
Like-named read-outs stand apart in the source and are kept apart here. Positions of bridges follow the written chain, without caps; N, C: chain ends. Non-standard residues stand in square brackets, D forms with d. Residues, ends and D or L forms follow the SMILES beside them. *: point of attachment. Malonyl(2,2-Me2,histaminyl) = CC(C)(C(=O)NCCc1cnc[nH]1)C(=O)*; Ala(1H-tetrazol-5-yl) = N[C@@H](Cc1nnn[nH]1)C(=O)O; αMePhe(2-F) = C[C@](N)(Cc1ccccc1F)C(=O)O; αMeL = CC(C)C[C@](C)(N)C(=O)O; Nle = CCCC[C@H](N)C(=O)O; Aib = CC(C)(N)C(=O)O

Experiments:
Format in all cases: cell-based
human GLP1 receptor = target: T1, human GLP1 receptor (Homo sapiens, UniProt P43220); test: cAMP accumulation assay, functional agonism of human GLP1 receptor; settings: HEK cells infected with human GLP1 receptor BacMam virus, HTRF cAMP; for Emax: HEK293, read-out: Human GLP-1R agonist cAMP Emax; for EC50: read-out: Human GLP-1R agonist cAMP pEC50 (converted)
T1 construct: expressed in transfected cells; host or cells: HEK cells, BacMam virus transduction
T1 sequence (P43220 24-463): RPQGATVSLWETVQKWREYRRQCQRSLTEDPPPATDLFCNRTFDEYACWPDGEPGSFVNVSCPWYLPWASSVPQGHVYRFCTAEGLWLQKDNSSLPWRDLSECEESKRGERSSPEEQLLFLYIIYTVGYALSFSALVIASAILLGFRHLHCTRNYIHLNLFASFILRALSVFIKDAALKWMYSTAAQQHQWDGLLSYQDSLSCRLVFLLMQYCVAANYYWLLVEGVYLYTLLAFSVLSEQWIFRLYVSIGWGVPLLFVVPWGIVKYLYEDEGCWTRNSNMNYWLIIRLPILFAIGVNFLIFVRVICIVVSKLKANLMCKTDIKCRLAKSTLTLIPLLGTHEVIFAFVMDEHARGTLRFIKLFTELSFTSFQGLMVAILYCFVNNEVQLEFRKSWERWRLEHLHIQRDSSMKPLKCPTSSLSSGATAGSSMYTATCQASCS
How it was run: (§1)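 cAMP by HTRF in BacMam-transduced HEK cells (24 h infection, frozen stocks); 0.5 mM IBMX in HBSS, 45 min, 37° C.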

mouse GLP2 receptor = target: T2, mouse GLP2 receptor (Mus musculus, UniProt Q5IXF8); test: cAMP accumulation assay, functional agonism of mouse GLP2 receptor
T2 construct: expressed in transfected cells; host or cells: HEK cells, transient transfection with GeneJuice
T2 sequence (Q5IXF8 1-512): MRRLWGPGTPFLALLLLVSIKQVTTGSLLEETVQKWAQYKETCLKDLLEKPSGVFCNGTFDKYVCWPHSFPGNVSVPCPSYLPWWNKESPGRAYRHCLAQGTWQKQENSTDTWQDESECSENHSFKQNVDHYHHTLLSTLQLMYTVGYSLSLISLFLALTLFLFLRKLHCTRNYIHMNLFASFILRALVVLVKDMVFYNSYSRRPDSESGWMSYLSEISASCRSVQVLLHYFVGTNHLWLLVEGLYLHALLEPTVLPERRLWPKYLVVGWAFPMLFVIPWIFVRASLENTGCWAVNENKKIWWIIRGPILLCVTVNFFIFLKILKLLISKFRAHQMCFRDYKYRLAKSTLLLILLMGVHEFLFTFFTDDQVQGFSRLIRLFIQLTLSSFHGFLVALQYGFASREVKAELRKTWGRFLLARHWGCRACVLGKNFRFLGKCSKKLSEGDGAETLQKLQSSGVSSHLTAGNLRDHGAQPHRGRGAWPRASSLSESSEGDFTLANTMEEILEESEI
Protocol: CAMP production upon agonist stimulation of mouse GLP2 or GLP1 receptors was assessed utilizing HiRange cAMP kit (Cisbio). In brief, HEK cells were transiently transfected for 24 hours with cDNA using GeneJuice Transfection reagent (EMD Millipore) and frozen at −80° C. for later use in the assay. On the day, various concentrations of compounds were dispensed using ECHO-555 (LabCyte) to a total volume of 100 nl into a low volume 384-well Proxi plate (Perkin Elmer) followed by addition of 10 μl of cell suspension delivering 8000 cells per well. Cells were prepared in the assay buffer (HBSS (Lonza) supplemented with 0.5 mM IBMX (Tocris)). After 45 min incubation at 37° C., the reaction was stopped by addition of the HTRF detection reagents in the lysis buffer provided in the kit. Following 1-hour incubation at RT, plates were read on Pherastar FS (BMG Labtech, Inc.) using standard HTRF settings. Dotmatics Studies software was used for calculation of pEC50 values by fitting data to a four-parameter concentration response curve.

human GLP2 receptor = target: T3, human GLP2 receptor (Homo sapiens, UniProt O95838); test: cAMP accumulation assay, functional agonism of human GLP2 receptor; settings: HEK cells infected with human GLP2 receptor BacMam virus, HTRF cAMP; for Emax: HEK293, read-out: Human GLP-2R agonist cAMP Emax; for EC50: read-out: Human GLP-2R agonist cAMP pEC50 (converted)
T3 construct: expressed in transfected cells; host or cells: HEK cells, BacMam virus transduction
T3 sequence (O95838 1-553): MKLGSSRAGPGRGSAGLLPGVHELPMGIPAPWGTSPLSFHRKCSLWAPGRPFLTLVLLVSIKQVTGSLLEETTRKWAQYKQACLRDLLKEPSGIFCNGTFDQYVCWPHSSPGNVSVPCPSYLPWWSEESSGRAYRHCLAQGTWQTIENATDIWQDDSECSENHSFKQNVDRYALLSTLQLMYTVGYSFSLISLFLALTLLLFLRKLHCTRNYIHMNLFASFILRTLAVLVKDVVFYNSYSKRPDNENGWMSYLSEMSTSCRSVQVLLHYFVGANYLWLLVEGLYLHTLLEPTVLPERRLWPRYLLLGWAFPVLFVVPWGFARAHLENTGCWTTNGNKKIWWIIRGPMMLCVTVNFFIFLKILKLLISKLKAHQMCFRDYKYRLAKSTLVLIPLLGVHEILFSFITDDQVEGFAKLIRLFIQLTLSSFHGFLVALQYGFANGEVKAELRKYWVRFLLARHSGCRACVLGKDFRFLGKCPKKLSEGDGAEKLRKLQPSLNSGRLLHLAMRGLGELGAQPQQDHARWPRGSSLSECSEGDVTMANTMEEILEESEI
How it was run: as §1

[1] = HEK293, HEK cells transiently transfected with mouse GLP2 receptor, HTRF cAMP, read-out: Mouse GLP-2R agonist cAMP Emax
[2] = HEK cells transiently transfected with mouse GLP2 receptor, HTRF cAMP, read-out: Mouse GLP-2R agonist cAMP pEC50 (converted)

| Emax (human GLP1 receptor) | EC50 (human GLP1 receptor) | Emax (human GLP2 receptor) | EC50 (human GLP2 receptor) | Emax (mouse GLP2 receptor; [1]) | EC50 (mouse GLP2 receptor; [2]) | Compound | EC50 (mouse GLP2 receptor) | Emax (mouse GLP2 receptor; HEK293, read-out: Mouse GLP-2R agonist cAMP Emax) |
| --- | --- | --- | --- | --- | --- | --- | --- | --- |
| 99.5% | 0.00501 nM | 102% | 0.02 nM | 103% | 0.631 nM | CCCC[C@H](NC(=O)[C@H](CCC(=O)O)NC(=O)[C@H](CC(=O)O)NC(=O)[C@H](CO)NC(=O)[C@](C)(Cc1ccccc1F)NC(=O)[C@H](CO)NC(=O)CNC(=O)[C@H](Cc1nn[nH]n1)NC(=O)C(C)(C)C(=O)NCCc1c[nH]cn1)C(=O)N[C@H](Cc1ccccc1)C(=O)N[C@H]1CCC(=O)NCCCC[C@@H](C(=O)N[C@H]2CCCCNC(=O)C[C@@H](C(=O)N[C@@H](Cc3ccccc3)C(=O)N[C@H](C(=O)N[C@H]3CCC(=O)NCCCC[C@@H](C(=O)N[C@H]4CCCCNC(=O)CC[C@@H](C(N)=O)NC(=O)[C@H]([C@@H](C)O)NC(=O)[C@H]([C@@H](C)CC)NC(=O)[C@H](CCCCN)NC4=O)NC(=O)[C@H]([C@@H](C)CC)NC(=O)[C@H](CC(C)C)NC(=O)[C@H](Cc4c[nH]c5ccccc45)NC3=O)[C@@H](C)CC)NC(=O)[C@H](CCCCN)NC(=O)[C@H](C)NC(=O)[C@H](C)NC2=O)NC(=O)[C@H](CC(=O)O)NC(=O)[C@H](CC(C)C)NC(=O)[C@H]([C@@H](C)CC)NC1=O [Example 53] ({Malonyl(2,2-Me2,histaminyl)}-[Ala(1H-tetrazol-5-yl)]GS[αMePhe(2-F)]SDE[Nle][dF]EILDKKAAKDFIEWLIKKKITE-NH2; lactam 10-14, 15-19, 22-26, 27-31; C-terminus assumed) |  |  |
| 97.3% | 0.0631 nM | 103% | 0.0126 nM | 98.6% | 0.631 nM | CCCC[C@@H]1NC(=O)[C@H](CCC(=O)O)NC(=O)[C@@H](NC(=O)[C@H](CO)NC(=O)[C@](C)(Cc2ccccc2F)NC(=O)[C@H](CO)NC(=O)[C@@H](C)NC(=O)[C@H](Cc2nn[nH]n2)NC(=O)C(C)(C)C(=O)NCCc2c[nH]cn2)CCCCNC(=O)C[C@@H](C(=O)N[C@@](C)(CC(C)C)C(=O)N[C@@H](CC(C)C)C(=O)N[C@@H](CC(=O)O)C(=O)N[C@H]2CCC(=O)NCCCC[C@@H](C(=O)N[C@@H](CC(=O)O)C(=O)N[C@@H](Cc3ccccc3)C(=O)N[C@H](C(=O)N[C@H]3CCCCNC(=O)C[C@@H](C(=O)N[C@H]4CCC(=O)NCCCC[C@@H](C(N)=O)NC(=O)[C@H]([C@@H](C)O)NC(=O)[C@H]([C@@H](C)CC)NC(=O)[C@H](CCCCN)NC4=O)NC(=O)[C@H]([C@@H](C)CC)NC(=O)[C@H](CC(C)C)NC(=O)[C@H](Cc4c[nH]c5ccccc45)NC3=O)[C@@H](C)CC)NC(=O)[C@H](C)NC(=O)[C@H](C)NC(=O)[C@H](CCCCN)NC2=O)NC(=O)[C@@H](Cc2ccccc2)NC1=O [Example 56] ({Malonyl(2,2-Me2,histaminyl)}-[Ala(1H-tetrazol-5-yl)][dA]S[αMePhe(2-F)]SKE[Nle][dF]D[αMeL]LDEKAAKDFIKWLIDEKITK-NH2; lactam 6-10, 14-18, 22-26, 27-31 (inferred); C-terminus assumed) |  |  |
| 97.9% | 0.0398 nM | 102% | 0.0398 nM | 86.3% | 6.31 nM | CCCC[C@H](NC(=O)[C@H](CCC(=O)O)NC(=O)[C@@H]1CC(=O)NCCCC[C@H](NC(=O)[C@H](CC(=O)O)NC(=O)C(C)(C)C(=O)NCCc2c[nH]cn2)C(=O)N[C@@H](CO)C(=O)N[C@@](C)(Cc2ccccc2F)C(=O)N[C@@H](CO)C(=O)N1)C(=O)N[C@H](Cc1ccccc1)C(=O)N[C@H](C(=O)N[C@@](C)(CC(C)C)C(=O)N[C@@H](CC(C)C)C(=O)N[C@@H](CC(=O)O)C(=O)N[C@H]1CCC(=O)NCCCC[C@@H](C(=O)N[C@@H](CC(=O)O)C(=O)N[C@@H](Cc2ccccc2)C(=O)N[C@H](C(=O)N[C@H]2CCC(=O)NCCCC[C@@H](C(=O)N[C@H]3CCC(=O)NCCCC[C@@H](C(N)=O)NC(=O)[C@H]([C@@H](C)O)NC(=O)[C@H]([C@@H](C)CC)NC(=O)[C@H](CCCCN)NC3=O)NC(=O)[C@H]([C@@H](C)CC)NC(=O)[C@H](CC(C)C)NC(=O)[C@H](Cc3c[nH]c4ccccc34)NC2=O)[C@@H](C)CC)NC(=O)[C@H](C)NC(=O)[C@H](C)NC(=O)[C@H](CCCCN)NC1=O)[C@@H](C)O [Example 65] ({Malonyl(2,2-Me2,histaminyl)}-DKS[αMePhe(2-F)]SDE[Nle][dF]T[αMeL]LDEKAAKDFIEWLIKEKITK-NH2; lactam 2-6, 14-18, 22-26, 27-31 (inferred); C-terminus assumed) |  |  |

Continued, compound first:

| Compound | Emax (human GLP1 receptor) | EC50 (human GLP1 receptor) | Emax (human GLP2 receptor) | EC50 (human GLP2 receptor) | Emax (mouse GLP2 receptor; [1]) | EC50 (mouse GLP2 receptor; [2]) | EC50 (mouse GLP2 receptor) | Emax (mouse GLP2 receptor; HEK293, read-out: Mouse GLP-2R agonist cAMP Emax) |
| --- | --- | --- | --- | --- | --- | --- | --- | --- |
| CCCC[C@H](NC(=O)[C@H](CCC(=O)O)NC(=O)[C@H](CC(=O)O)NC(=O)[C@H](CO)NC(=O)[C@](C)(Cc1ccccc1F)NC(=O)[C@H](CO)NC(=O)CNC(=O)[C@H](Cc1nn[nH]n1)NC(=O)C(C)(C)C(=O)NCCc1c[nH]cn1)C(=O)N[C@H](Cc1ccccc1)C(=O)N[C@H]1CCC(=O)NCCCC[C@@H](C(=O)N[C@H]2CCC(=O)NCCCC[C@@H](C(=O)N[C@@H](CC(=O)O)C(=O)N[C@@H](Cc3ccccc3)C(=O)N[C@H](C(=O)N[C@H]3CCC(=O)NCCCC[C@@H](C(=O)N[C@H]4CCCCNC(=O)CC[C@@H](C(N)=O)NC(=O)[C@H]([C@@H](C)O)NC(=O)[C@H]([C@@H](C)CC)NC(=O)[C@H](CCCCN)NC4=O)NC(=O)[C@H]([C@@H](C)CC)NC(=O)[C@H](CC(C)C)NC(=O)[C@H](Cc4c[nH]c5ccccc45)NC3=O)[C@@H](C)CC)NC(=O)[C@H](C)NC(=O)[C@H](C)NC2=O)NC(=O)[C@H](CC(=O)O)NC(=O)[C@H](CC(C)C)NC(=O)[C@H]([C@@H](C)CC)NC1=O [Example 52] | 98.8% | 0.00251 nM | 102% | 0.01 nM |  |  | 0.2 nM | 103% |
| CCCC[C@H](NC(=O)[C@H](CCC(=O)O)NC(=O)[C@@H]1CC(=O)NCCCC[C@H](NC(=O)[C@H](CC(=O)O)NC(=O)C(C)(C)NC(=O)[C@@H](N)Cc2c[nH]cn2)C(=O)N[C@@H](CO)C(=O)N[C@@](C)(Cc2ccccc2F)C(=O)N[C@@H](CO)C(=O)N1)C(=O)N[C@H](Cc1ccccc1)C(=O)N[C@H](C(=O)N[C@@](C)(CC(C)C)C(=O)N[C@@H](CC(C)C)C(=O)N[C@@H](CC(=O)O)C(=O)N[C@H]1CCC(=O)NCCCC[C@@H](C(=O)N[C@@H](CC(=O)O)C(=O)N[C@@H](Cc2ccccc2)C(=O)N[C@H](C(=O)N[C@H]2CCC(=O)NCCCC[C@@H](C(=O)N[C@H]3CCC(=O)NCCCC[C@@H](C(N)=O)NC(=O)[C@H]([C@@H](C)O)NC(=O)[C@H]([C@@H](C)CC)NC(=O)[C@H](CCCCN)NC3=O)NC(=O)[C@H]([C@@H](C)CC)NC(=O)[C@H](CC(C)C)NC(=O)[C@H](Cc3c[nH]c4ccccc34)NC2=O)[C@@H](C)CC)NC(=O)[C@H](C)NC(=O)[C@H](C)NC(=O)[C@H](CCCCN)NC1=O)[C@@H](C)O [Example 64] (H-H[Aib]DKS[αMePhe(2-F)]SDE[Nle][dF]T[αMeL]LDEKAAKDFIEWLIKEKITK-NH2; lactam 4-8, 16-20, 24-28, 29-33; N-terminus and C-terminus assumed) | 98% | 0.0251 nM | 104% | 0.0398 nM | 99.7% | 2 nM |  |  |
